Results taken from patent publication US9388164B2, “Methods of using pyruvate kinase activators” (AGIOS PHARMACEUTICALS, INC, priority 2011, dated 2016).

Key:
Format in all cases: biochemical
[1] = target: PKR R510Q (Homo sapiens, UniProt P30613, R510Q); assay: PKR R510Q Single Point Percent Activation Assay; conditions: compound at 1 μM; for activation at 1 µM: read-out: % Act. R510Q
Protocol: PKR R510Q Single Point Percent Activation Assay
(§1) A compound described herein was diluted with DMSO and tested at 1 μM concentration. The enzyme was diluted in 1× Buffer: (100 mM KCl, 50 mM Tris 7.5, 5 mM MgCl2, 1 mM DTT, 0.03% BSA). 2 μL of compound solution was first added into wells, and then 180 μL of enzyme solution was added. Assays were assembled except for ADP, and plates were stored for 60 minutes at RT. 20 μL ADP was added to start the assay and assay output was evaluated using OD340 at SpectraMax. The assay was run at room temperature.
PKR R510Q (40 ng/well), Tris pH 7.5 (50 mM), KCl (100 mM), MgCl2 (5 mM), ADP (0.2 mM), PEP (0.11 mM), NADH (180 μM), LDH (0.5 units, Sigma 59023), DTT (1 mM) and BSA (0.03%).

[2] = target: PKR wt (Homo sapiens, UniProt P30613); assay: PKR WT Single Point Percent Activation Assay; conditions: compound at 1 μM
Protocol: PKR WT Single Point Percent Activation Assay
as §1
PKR wt (100 ng/well), Tris pH 7.5 (50 mM), KCl (100 mM), MgCl2 (5 mM), ADP (0.48 mM), PEP (0.15 mM), NADH (180 μM), LDH (0.5 units, Sigma 59023), DTT (1 mM) and BSA (0.03%).

[3] = target: PKR R532W (Homo sapiens, UniProt P30613, R532W); assay: PKR R532W Single Point Percent Activation Assay; conditions: compound at 1 μM; for activation at 1 µM: read-out: % Act. R532W
Protocol: PKR R532W Single Point Percent Activation Assay
as §1
PKR R532W (100 ng/well), Tris pH 7.5 (50 mM), KCl (100 mM), MgCl2 (5 mM), ADP (0.36 mM), PEP (0.1 mM), NADH (180 μM), LDH (0.5 units, Sigma 59023), DTT (1 mM) and BSA (0.03%).

[4] = target: PKR T384W (Homo sapiens, UniProt P30613); assay: PKR T384W Single Point Percent Activation Assay; conditions: compound at 1 μM
Protocol: PKR T384W Single Point Percent Activation Assay
as §1, with “180 μL enzyme solution” for “180 μL of enzyme solution”
PKR T384W soluble (300 ng/well), Tris pH 7.5 (50 mM), KCl (100 mM), MgCl2 (5 mM), ADP (0.08 mM), PEP (0.23 mM), NADH (180 μM), LDH (0.5 units, Sigma 59023), DTT (1 mM) and BSA (0.03%).

[5] = target: wild type PKR (Homo sapiens, UniProt P30613); assay: PKR assay, AC50 (wild type); conditions: read-out: PKR WT AC50
Protocol: • PKR or PKR mutant enzyme solution was diluted in assay buffer. • 2 μL of test compound was added into wells first, and then 180 μL reaction mix was added. • Reactions mixture with test compound was assembled except for ADP, and plates were stored for 60 minutes at room temperature. • 20 uL ADP was added to start reaction at room temperature and reaction progress was measured as changes in absorbance at 340 nm wavelength at room temperature.
Test Compound Preparation: • Test compound stock was made at 100× concentration in 100% DMSO (10 mM) • 1 to 3 dilutions were made for 11 points (i.e. 50 μl of first concentration added to 100 μl 100% DMSO to yield 3.33 mM, 50 μl of this added to 100 μl DMSO to yield 1.11 mM, and so forth) • 1 to 100 dilution into assay (2 μl in 200 μl) yielded starting concentration of 100 μM, decreasing 3 fold for 11 points.

Chain of wild type PKR (P30613 whole entry): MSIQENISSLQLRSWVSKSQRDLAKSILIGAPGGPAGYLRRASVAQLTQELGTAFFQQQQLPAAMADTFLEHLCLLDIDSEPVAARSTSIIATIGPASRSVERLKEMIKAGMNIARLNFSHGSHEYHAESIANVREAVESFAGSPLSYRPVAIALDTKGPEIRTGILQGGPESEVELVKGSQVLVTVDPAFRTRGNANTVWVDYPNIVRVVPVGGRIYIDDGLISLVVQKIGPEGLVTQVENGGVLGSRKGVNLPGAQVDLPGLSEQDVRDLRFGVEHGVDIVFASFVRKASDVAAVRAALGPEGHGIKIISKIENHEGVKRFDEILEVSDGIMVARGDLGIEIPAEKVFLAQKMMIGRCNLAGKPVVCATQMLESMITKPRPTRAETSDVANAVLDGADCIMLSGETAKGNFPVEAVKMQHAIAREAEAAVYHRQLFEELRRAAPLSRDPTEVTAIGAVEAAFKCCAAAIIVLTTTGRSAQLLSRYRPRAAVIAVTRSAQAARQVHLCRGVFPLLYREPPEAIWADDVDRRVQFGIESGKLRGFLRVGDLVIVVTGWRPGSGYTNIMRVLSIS
Chain of PKR wt (P30613 whole entry): as above
Chain of PKR T384W (P30613 whole entry T384M): as the sequence (P30613 whole entry) above, with T384M counted along it
Chain of PKR R532W (P30613 whole entry R532W): as the sequence (P30613 whole entry) above, with R532W counted along it
Chain of PKR R510Q (P30613 whole entry R510Q): as the sequence (P30613 whole entry) above, with R510Q counted along it

Structure (SMILES) | activation at 1 µM [1] [%] | activation at 1 µM [2] [%] | activation at 1 µM [3] [%] | % Act. T384W [4] | AC50 [5] [nM] | % Act. R532W [3] | % Act. R510Q [1] | Act. % WT [2]
CC1(O)CN(C(=O)c2ccc(NS(=O)(=O)c3cccc4cccnc34)c(F)c2)C1 | 101 to 500 | 101 to 500 | 1 to 100 | B (a % activation at 1 μM of from 101 to 500) | – | – | – | –
CC1(O)CN(C(=O)c2ccc(NS(=O)(=O)c3cccc4cccnc34)cc2)C1 | 101 to 500 | 101 to 500 | 1 to 100 | B (a % activation at 1 μM of from 101 to 500) | – | – | – | –
COc1cc(NS(=O)(=O)c2cccc3cccnc23)ccc1C(=O)N1CC(C)(O)C1 | 101 to 500 | 101 to 500 | 1 to 100 | B (a % activation at 1 μM of from 101 to 500) | – | – | – | –
COc1ccccc1OC1CN(C(=O)c2ccc(NS(=O)(=O)c3cccc4cccnc34)cc2)C1 | 101 to 500 | 101 to 500 | 1 to 100 | B (a % activation at 1 μM of from 101 to 500) | – | – | – | –
COc1cc(NS(=O)(=O)c2cccc3cccnc23)ccc1C(=O)N1CC(O)(Cc2ccccc2)C1 | 101 to 500 | 101 to 500 | 101 to 500 | B (a % activation at 1 μM of from 101 to 500) | – | – | – | –
Cc1cc(C(=O)N2CC(O)(Cc3ccccc3)C2)ccc1NS(=O)(=O)c1cccc2cccnc12 | 101 to 500 | 101 to 500 | 1 to 100 | B (a % activation at 1 μM of from 101 to 500) | – | – | – | –
Cc1cc(C(=O)N2CC(OC(=O)NC(C)C)C2)ccc1NS(=O)(=O)c1cccc2cccnc12 | 101 to 500 | 101 to 500 | 101 to 500 | A (a % activation at 1 μM of from 1 to 100) | – | – | – | –
COc1cc(NS(=O)(=O)c2cccc3cccnc23)ccc1C(=O)N1CC(OC(=O)NC(C)C)C1 | 101 to 500 | 101 to 500 | 101 to 500 | B (a % activation at 1 μM of from 101 to 500) | – | – | – | –
CC(C)NC(=O)OC1CN(C(=O)c2ccc(NS(=O)(=O)c3cccc4cccnc34)c(F)c2)C1 | 101 to 500 | 101 to 500 | 1 to 100 | B (a % activation at 1 μM of from 101 to 500) | – | – | – | –
CC(C)NC(=O)OC1CN(C(=O)c2ccc(NS(=O)(=O)c3cccc4cccnc34)cc2)C1 | 101 to 500 | 101 to 500 | 101 to 500 | B (a % activation at 1 μM of from 101 to 500) | – | – | – | –
Cc1cc(C(=O)N2CC(O)(c3ccccc3)C2)ccc1NS(=O)(=O)c1cccc2cccnc12 | 101 to 500 | 101 to 500 | 101 to 500 | B (a % activation at 1 μM of from 101 to 500) | – | – | – | –
COc1cc(NS(=O)(=O)c2cccc3cccnc23)ccc1C(=O)N1CC(O)(c2ccccc2)C1 | 101 to 500 | 101 to 500 | 101 to 500 | B (a % activation at 1 μM of from 101 to 500) | – | – | – | –
C=CCNC(=O)NC1CN(C(=O)c2ccc(NS(=O)(=O)c3cccc4cccnc34)cc2)C1 | 101 to 500 | 101 to 500 | 101 to 500 | B (a % activation at 1 μM of from 101 to 500) | – | – | – | –
C=CCNC(=O)NC1CN(C(=O)c2ccc(NS(=O)(=O)c3cccc4cccnc34)c(OC)c2)C1 | 101 to 500 | 101 to 500 | 101 to 500 | B (a % activation at 1 μM of from 101 to 500) | – | – | – | –
O=C(c1ccc(NS(=O)(=O)c2cccc3cccnc23)cc1)N1CC(O)C1 | 101 to 500 | 101 to 500 | 101 to 500 | B (a % activation at 1 μM of from 101 to 500) | – | – | – | –
Cc1cc(C(=O)N2CC(O)C2)ccc1NS(=O)(=O)c1cccc2cccnc12 | 101 to 500 | 101 to 500 | 101 to 500 | A (a % activation at 1 μM of from 1 to 100) | – | – | – | –
COc1cc(NS(=O)(=O)c2cccc3cccnc23)ccc1C(=O)N1CC(O)C1 | 101 to 500 | 101 to 500 | 101 to 500 | A (a % activation at 1 μM of from 1 to 100) | – | – | – | –
Cc1cc(C(=O)N2CC(C)(O)C2)ccc1NS(=O)(=O)c1cccc2cccnc12 | 101 to 500 | 101 to 500 | 101 to 500 | B (a % activation at 1 μM of from 101 to 500) | – | – | – | –
Cc1cc(C(=O)N2CC(Nc3ccccc3)C2)ccc1NS(=O)(=O)c1cccc2cccnc12 | 101 to 500 | 101 to 500 | 101 to 500 | B (a % activation at 1 μM of from 101 to 500) | – | – | – | –
CN(Cc1ccccc1)C1CN(C(=O)c2ccc(NS(=O)(=O)c3cccc4cccnc34)cc2)C1 | 101 to 500 | 101 to 500 | 101 to 500 | B (a % activation at 1 μM of from 101 to 500) | – | – | – | –
O=C(c1ccc(NS(=O)(=O)c2cccc3cccnc23)cc1)N1CC(Oc2ccccc2)C1 [drawing 4] | 101 to 500 | 101 to 500 | 101 to 500 | B (a % activation at 1 μM of from 101 to 500) | 101 to 500 | – | – | –
O=C(c1ccc(NS(=O)(=O)c2cccc3cccnc23)cc1)N1CC(O)(Cc2ccccc2)C1 [drawing 5] | 101 to 500 | 101 to 500 | 101 to 500 | B (a % activation at 1 μM of from 101 to 500) | < 100 | – | – | –
Cc1cc(C(=O)N2CC(NC(=O)c3ccccn3)C2)ccc1NS(=O)(=O)c1cccc2cccnc12 [drawing 7] | 101 to 500 | 101 to 500 | 1 to 100 | B (a % activation at 1 μM of from 101 to 500) | 101 to 500 | – | – | –
O=C(NC1CN(C(=O)c2ccc(NS(=O)(=O)c3cccc4cccnc34)cc2)C1)c1ccccn1 [drawing 8] | 101 to 500 | 101 to 500 | – | B (a % activation at 1 μM of from 101 to 500) | – | A (a % activation at 1 μM of from 1 to 100) | – | –
COc1ccccc1N(C)C1CN(C(=O)c2ccc(NS(=O)(=O)c3cccc4cccnc34)cc2)C1 [drawing 21] | 101 to 500 | 101 to 500 | – | A (a % activation at 1 μM of from 1 to 100) | – | B (a % activation at 1 μM of from 101 to 500) | – | –
COc1ccccc1N(C)C1CN(C(=O)c2ccc(NS(=O)(=O)c3cccc4cccnc34)cc2)C1 [drawing 32] | – | – | – | B (a % activation at 1 μM of from 101 to 500) | – | A (a % activation at 1 μM of from 1 to 100) | B (a % activation at 1 μM of from 101 to 500) | B (a % activation at 1 μM of from 101 to 500)
Cc1cc(C(=O)N2CC(Nc3ccccn3)C2)ccc1NS(=O)(=O)c1cccc2cccnc12 [drawing 55] | 1 to 100 | 1 to 100 | 1 to 100 | B (a % activation at 1 μM of from 101 to 500) | – | – | – | –
O=C(Nc1ccccn1)OC1CN(C(=O)c2ccc(NS(=O)(=O)c3cccc4cccnc34)cc2)C1 [drawing 65] | 101 to 500 | 101 to 500 | 101 to 500 | B (a % activation at 1 μM of from 101 to 500) | – | – | – | –
